What all share (type): biochemical
For one test, the target named is T1, human Src enzyme (Homo sapiens, UniProt P12931).
T1 construct: purchased Carna Biosciences, Inc. 08-173
The test is described as follows: Src enzyme inhibitory activity (time-resolved fluorometry, biotinylated peptide phosphorylation). The conditions noted are these: biotinylated peptide phosphorylation, read-out: SRC_IC50. The essentials:
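Compounds were tested for blocking tyrosine phosphorylation of a biotinylated peptide substrate by recombinant human Src. Phosphorylated product was quantified by time-resolved fluorometry using europium cryptate and XL665 conjugates, and IC50 was calculated against the compound-free control.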

The next test has as its target T2, human Yes1 enzyme (Homo sapiens, UniProt P07947).
T2 construct: made in house
The test is described as follows: Yes1 enzyme inhibitory activity (time-resolved fluorometry, biotinylated peptide phosphorylation). To be noted: biotinylated peptide phosphorylation, read-out: YES_IC50. In a few lines: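 Inhibition was expressed against a compound-free control to give IC50, using TR-FRET read-out (Eu-cryptate anti-pTyr antibody, streptavidin-XL665).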

The target in another test is T3, human Lck enzyme (Homo sapiens, UniProt P06239).
T3 construct: purchased Carna Biosciences, Inc. 08-170
T3 sequence (P06239 whole entry): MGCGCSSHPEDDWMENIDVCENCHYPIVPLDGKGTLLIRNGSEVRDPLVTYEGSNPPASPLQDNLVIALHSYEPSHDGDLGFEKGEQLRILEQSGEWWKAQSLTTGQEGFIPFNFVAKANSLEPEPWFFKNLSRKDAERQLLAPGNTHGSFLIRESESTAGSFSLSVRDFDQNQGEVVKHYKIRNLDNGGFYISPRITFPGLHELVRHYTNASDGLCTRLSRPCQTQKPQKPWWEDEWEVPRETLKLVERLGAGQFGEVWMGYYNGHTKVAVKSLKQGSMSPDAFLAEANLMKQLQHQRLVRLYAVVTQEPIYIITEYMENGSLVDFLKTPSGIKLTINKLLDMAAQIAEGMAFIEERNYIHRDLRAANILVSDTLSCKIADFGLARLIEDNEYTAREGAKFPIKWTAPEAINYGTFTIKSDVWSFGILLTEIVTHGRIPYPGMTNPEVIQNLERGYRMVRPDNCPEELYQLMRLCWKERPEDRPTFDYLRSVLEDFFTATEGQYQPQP
Nature of the test: Lck enzyme inhibitory activity (time-resolved fluorometry, biotinylated peptide phosphorylation). The conditions noted are these: biotinylated peptide phosphorylation, read-out: LCK_IC50. In a few lines:
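Readout pairs a europium cryptate-labelled anti-phosphotyrosine antibody with XL665-streptavidin, measured by time-resolved fluorescence. IC50 derived from percent inhibition against untreated controls.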

T2 sequence (P07947 whole entry): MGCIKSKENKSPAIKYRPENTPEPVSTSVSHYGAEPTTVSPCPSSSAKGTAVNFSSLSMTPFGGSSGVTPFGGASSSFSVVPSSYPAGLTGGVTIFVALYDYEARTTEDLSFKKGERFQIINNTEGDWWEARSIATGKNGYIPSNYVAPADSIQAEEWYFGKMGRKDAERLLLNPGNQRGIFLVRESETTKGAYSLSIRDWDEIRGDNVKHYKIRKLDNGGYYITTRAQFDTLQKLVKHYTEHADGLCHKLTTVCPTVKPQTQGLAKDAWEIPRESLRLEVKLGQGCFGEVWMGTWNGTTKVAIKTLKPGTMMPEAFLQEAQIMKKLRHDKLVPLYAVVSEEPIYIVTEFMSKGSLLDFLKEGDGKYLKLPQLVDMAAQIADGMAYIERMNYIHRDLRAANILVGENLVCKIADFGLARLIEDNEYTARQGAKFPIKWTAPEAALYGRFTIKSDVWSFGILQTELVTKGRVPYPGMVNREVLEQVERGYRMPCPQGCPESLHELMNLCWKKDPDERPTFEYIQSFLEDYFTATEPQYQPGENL
T1 sequence (P12931 whole entry): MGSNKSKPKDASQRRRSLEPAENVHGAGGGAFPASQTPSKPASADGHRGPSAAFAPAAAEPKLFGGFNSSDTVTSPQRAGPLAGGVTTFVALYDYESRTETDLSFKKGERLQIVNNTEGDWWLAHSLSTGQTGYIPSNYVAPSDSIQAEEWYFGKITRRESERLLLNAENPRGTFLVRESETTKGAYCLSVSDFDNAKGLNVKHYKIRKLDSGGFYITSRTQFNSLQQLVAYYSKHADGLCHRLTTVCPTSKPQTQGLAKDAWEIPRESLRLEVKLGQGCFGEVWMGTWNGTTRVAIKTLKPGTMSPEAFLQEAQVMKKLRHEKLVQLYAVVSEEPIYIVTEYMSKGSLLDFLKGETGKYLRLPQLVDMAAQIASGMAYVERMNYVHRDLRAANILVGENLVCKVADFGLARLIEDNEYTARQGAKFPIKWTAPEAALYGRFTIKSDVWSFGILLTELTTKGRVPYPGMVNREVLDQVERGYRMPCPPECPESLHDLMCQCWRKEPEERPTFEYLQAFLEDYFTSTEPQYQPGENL

Consider `Cc1cc2cc(C(=O)c3cnn(-c4cnc(Oc5ccccc5F)cc4C)c3N)[nH]c2cc1N1CCCS1(=O)=O` [Example 4-16-001, {5-amino-1-[6-(2-fluorophenoxy)-4-methylpyridin-3-yl]pyrazol-4-yl}-[6-(1,1-dioxo-1,2-thiazolidin-2-yl)-5-methyl-1H-indol-2-yl]methanone], for which the IC50 at human Src enzyme came out at 0.016 µM; at human Yes1 enzyme, 0.00062 µM; on human Lck enzyme, 0.0045 µM.

Regarding `CC(=O)N1CCC(c2cc3[nH]c(C(=O)c4cnn(-c5cnc(Oc6c(F)cccc6F)cc5C)c4N)cc3cc2OCC(F)F)CC1` [Example 4-17-001, 1-{4-{2-{5-amino-1-{6-(2,6-difluorophenoxy)-4-methylpyridin-3-yl}pyrazole-4-carbonyl}-5-(2,2-difluoroethoxy)-1H-indol-6-yl}piperidin-1-yl}ethanone], the IC50 is 0.026 µM at human Src enzyme, 0.0045 µM at human Yes1 enzyme and 0.012 µM on human Lck enzyme.

Consider `CC(=O)N1CCC(c2cc3[nH]c(C(=O)c4cnn(-c5ccc(Oc6ccccc6F)cc5C)c4N)cc3cc2OC(F)F)CC1` [Example 4-17-002, 1-[4-[2-[5-amino-1-[4-(2-fluorophenoxy)-2-methylphenyl]pyrazole-4-carbonyl]-5-(difluoromethoxy)-1H-indol-6-yl]piperidin-1-yl]ethanone], for which the IC50 at human Src enzyme turned out to be 0.043 µM; on human Yes1 enzyme, 0.01 µM; on human Lck enzyme, 0.018 µM.

`Cc1cc(Oc2ccccc2F)ccc1-n1ncc(C(=O)c2cc3cc(OC(F)F)c(C4CCN(S(C)(=O)=O)CC4)cc3[nH]2)c1N` [Example 4-17-003, [5-amino-1-[4-(2-fluorophenoxy)-2-methylphenyl]pyrazol-4-yl]-[5-(difluoromethoxy)-6-(1-methylsulfonylpiperidin-4-yl)-1H-indol-2-yl]methanone]: the IC50 was 0.023 µM on human Src enzyme, 0.0074 µM at human Yes1 enzyme and 0.02 µM on human Lck enzyme.

As to `Cc1cc(Oc2ccccc2F)ccc1-n1ncc(C(=O)c2cc3cc(OC(F)F)c(C4CCN(S(=O)(=O)C5CC5)CC4)cc3[nH]2)c1N` [Example 4-17-004, [5-amino-1-[4-(2-fluorophenoxy)-2-methylphenyl]pyrazol-4-yl]-[6-(1-cyclopropylsulfonylpiperidin-4-yl)-5-(difluoromethoxy)-1H-indol-2-yl]methanone], the IC50 at human Src enzyme turned out to be 0.022 µM; on human Yes1 enzyme, 0.0096 µM; on human Lck enzyme it was 0.017 µM.

As for `CC(=O)N1CCC(c2cc3[nH]c(C(=O)c4cnn(-c5c(C)cc(Oc6ccccc6F)cc5F)c4N)cc3cc2OC(F)F)CC1` [Example 4-17-005, 1-[4-[2-[5-amino-1-[2-fluoro-4-(2-fluorophenoxy)-6-methylphenyl]pyrazole-4-carbonyl]-5-(difluoromethoxy)-1H-indol-6-yl]piperidin-1-yl]ethanone], the values for the IC50 at human Src enzyme, on human Yes1 enzyme and on human Lck enzyme were 0.036 µM, 0.0029 µM and 0.017 µM, respectively.

In the case of `Cc1cc(Oc2ccccc2F)cc(F)c1-n1ncc(C(=O)c2cc3cc(OC(F)F)c(C4CCN(S(C)(=O)=O)CC4)cc3[nH]2)c1N` [Example 4-17-006, [5-amino-1-[2-fluoro-4-(2-fluorophenoxy)-6-methylphenyl]pyrazol-4-yl]-[5-(difluoromethoxy)-6-(1-methylsulfonylpiperidin-4-yl)-1H-indol-2-yl]methanone], the figures for the IC50 on human Src enzyme, on human Yes1 enzyme and on human Lck enzyme were 0.025 µM, 0.0034 µM and 0.013 µM, respectively.

`Cc1cc(Oc2ccccc2F)cc(F)c1-n1ncc(C(=O)c2cc3cc(OC(F)F)c(C4CCN(S(=O)(=O)C5CC5)CC4)cc3[nH]2)c1N` [Example 4-17-007, [5-amino-1-[2-fluoro-4-(2-fluorophenoxy)-6-methylphenyl]pyrazol-4-yl]-[6-(1-cyclopropylsulfonylpiperidin-4-yl)-5-(difluoromethoxy)-1H-indol-2-yl]methanone]: the IC50 at human Src enzyme was determined as 0.022 µM; at human Yes1 enzyme, 0.0039 µM; at human Lck enzyme, 0.012 µM.

As to `CC(=O)N1CCC(c2cc3[nH]c(C(=O)c4cnn(-c5cnc(Oc6ccccc6F)cc5C)c4N)cc3cc2OC(F)F)CC1` [Example 4-17-008, 1-[4-[2-[5-amino-1-[6-(2-fluorophenoxy)-4-methylpyridin-3-yl]pyrazole-4-carbonyl]-5-(difluoromethoxy)-1H-indol-6-yl]piperidin-1-yl]ethanone], the values for the IC50 at human Src enzyme, on human Yes1 enzyme and at human Lck enzyme were 0.013 µM, 0.0016 µM and 0.0055 µM, respectively.

`Cc1cc(Oc2ccccc2F)ncc1-n1ncc(C(=O)c2cc3cc(OC(F)F)c(C4CCN(S(C)(=O)=O)CC4)cc3[nH]2)c1N` [Example 4-17-009, [5-amino-1-[6-(2-fluorophenoxy)-4-methylpyridin-3-yl]pyrazol-4-yl]-[5-(difluoromethoxy)-6-(1-methylsulfonylpiperidin-4-yl)-1H-indol-2-yl]methanone]: the IC50 at human Src enzyme is 0.014 µM; at human Yes1 enzyme, 0.0018 µM; on human Lck enzyme it was 0.0049 µM.

In the case of `Cc1cc(Oc2ccccc2F)ncc1-n1ncc(C(=O)c2cc3cc(OC(F)F)c(C4CCN(S(=O)(=O)C5CC5)CC4)cc3[nH]2)c1N` [Example 4-17-010, [5-amino-1-[6-(2-fluorophenoxy)-4-methylpyridin-3-yl]pyrazol-4-yl]-[6-(1-cyclopropylsulfonylpiperidin-4-yl)-5-(difluoromethoxy)-1H-indol-2-yl]methanone], the IC50 on human Src enzyme came out at 0.099 µM; on human Yes1 enzyme it was 0.002 µM; on human Lck enzyme, 0.045 µM.

On to `CC(=O)N1CCC(c2cc3[nH]c(C(=O)c4cnn(-c5cnc(Oc6c(F)cccc6F)cc5C)c4N)cc3cc2OC(F)F)CC1` [Example 4-17-011, 1-[4-[2-[5-amino-1-[6-(2,6-difluorophenoxy)-4-methylpyridin-3-yl]pyrazole-4-carbonyl]-5-(difluoromethoxy)-1H-indol-6-yl]piperidin-1-yl]ethanone], for which the IC50 on human Src enzyme stood at 0.043 µM; on human Yes1 enzyme, 0.013 µM; on human Lck enzyme, 0.023 µM.

Consider `Cc1cc(Oc2c(F)cccc2F)ncc1-n1ncc(C(=O)c2cc3cc(OC(F)F)c(C4CCN(S(C)(=O)=O)CC4)cc3[nH]2)c1N` [Example 4-17-012, [5-amino-1-[6-(2,6-difluorophenoxy)-4-methylpyridin-3-yl]pyrazol-4-yl]-[5-(difluoromethoxy)-6-(1-methylsulfonylpiperidin-4-yl)-1H-indol-2-yl]methanone], for which the IC50 at human Src enzyme is 0.045 µM; on human Yes1 enzyme, 0.016 µM; on human Lck enzyme, 0.03 µM.

For `Cc1cc(Oc2c(F)cccc2F)ncc1-n1ncc(C(=O)c2cc3cc(OC(F)F)c(C4CCN(S(=O)(=O)C5CC5)CC4)cc3[nH]2)c1N` [Example 4-17-013, [5-amino-1-[6-(2,6-difluorophenoxy)-4-methylpyridin-3-yl]pyrazol-4-yl]-[6-(1-cyclopropylsulfonylpiperidin-4-yl)-5-(difluoromethoxy)-1H-indol-2-yl]methanone], the IC50 is 0.046 µM at human Src enzyme, 0.017 µM at human Yes1 enzyme and 0.037 µM on human Lck enzyme.

`CC(=O)N1CCC(c2cc3[nH]c(C(=O)c4cnn(-c5ccc(Oc6ccccc6F)cc5C)c4N)cc3cc2OCC(F)F)CC1` [Example 4-17-014, 1-[4-[2-[5-amino-1-[4-(2-fluorophenoxy)-2-methylphenyl]pyrazole-4-carbonyl]-5-(2,2-difluoroethoxy)-1H-indol-6-yl]piperidin-1-yl]ethanone]: the IC50 on human Src enzyme came out at 0.027 µM; on human Yes1 enzyme, 0.0045 µM; at human Lck enzyme, 0.013 µM.

Take `Cc1cc(Oc2ccccc2F)ccc1-n1ncc(C(=O)c2cc3cc(OCC(F)F)c(C4CCN(S(C)(=O)=O)CC4)cc3[nH]2)c1N` [Example 4-17-015, [5-amino-1-[4-(2-fluorophenoxy)-2-methylphenyl]pyrazol-4-yl]-[5-(2,2-difluoroethoxy)-6-(1-methylsulfonylpiperidin-4-yl)-1H-indol-2-yl]methanone]: the IC50 on human Src enzyme was found to be 0.014 µM; on human Yes1 enzyme, 0.005 µM; on human Lck enzyme, 0.014 µM.

For the molecule `Cc1cc(Oc2ccccc2F)ccc1-n1ncc(C(=O)c2cc3cc(OCC(F)F)c(C4CCN(S(=O)(=O)C5CC5)CC4)cc3[nH]2)c1N` [Example 4-17-016, [5-amino-1-[4-(2-fluorophenoxy)-2-methylphenyl]pyrazol-4-yl]-[6-(1-cyclopropylsulfonylpiperidin-4-yl)-5-(2,2-difluoroethoxy)-1H-indol-2-yl]methanone], the IC50 on human Src enzyme turned out to be 0.015 µM; on human Yes1 enzyme it was 0.0064 µM; at human Lck enzyme, 0.012 µM.

As for `CC(=O)N1CCC(c2cc3[nH]c(C(=O)c4cnn(-c5c(C)cc(Oc6ccccc6F)cc5F)c4N)cc3cc2OCC(F)F)CC1` [Example 4-17-017, 1-[4-[2-[5-amino-1-[2-fluoro-4-(2-fluorophenoxy)-6-methylphenyl]pyrazole-4-carbonyl]-5-(2,2-difluoroethoxy)-1H-indol-6-yl]piperidin-1-yl]ethanone], the IC50 on human Src enzyme was found to be 0.017 µM; on human Yes1 enzyme it was 0.0021 µM; on human Lck enzyme, 0.0058 µM.

`Cc1cc(Oc2ccccc2F)cc(F)c1-n1ncc(C(=O)c2cc3cc(OCC(F)F)c(C4CCN(S(C)(=O)=O)CC4)cc3[nH]2)c1N` [Example 4-17-018, [5-amino-1-[2-fluoro-4-(2-fluorophenoxy)-6-methylphenyl]pyrazol-4-yl]-[5-(2,2-difluoroethoxy)-6-(1-methylsulfonylpiperidin-4-yl)-1H-indol-2-yl]methanone]: the IC50 was 0.019 µM at human Src enzyme, 0.0024 µM at human Yes1 enzyme and 0.011 µM on human Lck enzyme.

(Values after patent US10479780B2, “Aminopyrazole derivatives” (Chugai Seiyaku Kabushiki Kaisha, priority 2015, dated 2019).)
